Source: ChEMBL document CHEMBL1201862, “PubChem BioAssay data set” (2004)
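Dose response: 5 concentrations. Exposure: 48 h. Format: 96-well plates. Endpoint: linear interpolation; highest concentration if not reached. GI50 is the concentration that inhibits growth by half.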 Active and inactive are the calls of the source. Cut-off read from the data, not from the text of the source: active = GI50 up to about 1.1 µM and inactive = higher.

What was measured:
Assay in all cases: NCI-60 cell line screen, 48 h
[1] = tested on: 786-0
[2] = tested on: A498
[3] = tested on: A549
[4] = tested on: ACHN
[5] = tested on: BT-549
[6] = tested on: CAKI-1
[7] = tested on: CCRF-CEM
[8] = tested on: COLO 205
[9] = tested on: DU-145
[10] = tested on: EKVX
[11] = tested on: HCC 2998
[12] = tested on: HCT-116
[13] = tested on: HCT-15
[14] = tested on: HL-60
[15] = tested on: HOP-62
[16] = tested on: HOP-92
[17] = tested on: HT-29
[18] = tested on: IGROV-1
[19] = tested on: K562
[20] = tested on: KM12
[21] = tested on: LOX IMVI
[22] = tested on: M14
[23] = tested on: MCF7
[24] = tested on: MDA-MB-435
[25] = tested on: MDA-N
[26] = tested on: MOLT-4
[27] = tested on: Malme-3M
[28] = tested on: NCI-H226
[29] = tested on: NCI-H23
[30] = tested on: NCI-H460
[31] = tested on: NCI-H522
[32] = tested on: NCI/ADR-RES
[33] = tested on: OVCAR-3
[34] = tested on: OVCAR-4
[35] = tested on: OVCAR-5
[36] = tested on: OVCAR-8
[37] = tested on: PC-3
[38] = tested on: RPMI-8226
[39] = tested on: RXF 393
[40] = tested on: SF-295
[41] = tested on: SF-539
[42] = tested on: SK-MEL-28
[43] = tested on: SK-MEL-2
[44] = tested on: SK-MEL-5
[45] = tested on: SK-OV-3
[46] = tested on: SN12C
[47] = tested on: SNB-19
[48] = tested on: SNB-75
[49] = tested on: SR
[50] = tested on: SW-620
[51] = tested on: T47D
[52] = tested on: TK-10
[53] = tested on: U-251
[54] = tested on: UACC-257
[55] = tested on: UACC-62
[56] = tested on: UO-31

Question: CN(C)c1ccc(/C=N/c2ccc(-c3nc4ccccc4s3)cc2)cc1 was tested. Which GI50 [1] did it give?
Answer: Its GI50 is 20.2 µM (inactive).

Question: What about the GI50 [2] of the same compound?
Answer: The GI50 was 10.2 µM (inactive).

Question: And the GI50 [3]?
Answer: Its GI50 is 39.7 µM (inactive).

Question: And the GI50 [4]?
Answer: Its GI50 is 17.4 µM (inactive).

Question: And the GI50 [5]?
Answer: Its GI50 is 35.4 µM (inactive).

Question: And the GI50 [6]?
Answer: Its GI50 is 28.6 µM (inactive).

Question: What about the GI50 [7] of the same compound?
Answer: The GI50 was 0.578 µM (active).

Question: What about the GI50 [8] of the same compound?
Answer: The GI50 was 23.1 µM (inactive).

Question: And the GI50 [9]?
Answer: Its GI50 is 35.6 µM (inactive).

Question: What about the GI50 [10] of the same compound?
Answer: Its GI50 is 24.6 µM (inactive).

Question: What about the GI50 [11] of the same compound?
Answer: Its GI50 is 20.8 µM (inactive).

Question: What about the GI50 [12] of the same compound?
Answer: Its GI50 is 33 µM (inactive).

Question: What about the GI50 [13] of the same compound?
Answer: The GI50 was 32.1 µM.

Question: What about the GI50 [14] of the same compound?
Answer: The GI50 was 0.0408 µM (active).

Question: What about the GI50 [15] of the same compound?
Answer: The GI50 was 24.5 µM (inactive).

Question: What about the GI50 [16] of the same compound?
Answer: Its GI50 is 22.4 µM (inactive).

Question: And the GI50 [17]?
Answer: Its GI50 is 32.5 µM (inactive).

Question: What about the GI50 [18] of the same compound?
Answer: The GI50 was 36.2 µM (inactive).

Question: And the GI50 [19]?
Answer: The GI50 was 28.8 µM (inactive).

Question: And the GI50 [20]?
Answer: Its GI50 is 24.9 µM (inactive).

Question: What about the GI50 [21] of the same compound?
Answer: The GI50 was 33.3 µM (inactive).

Question: What about the GI50 [22] of the same compound?
Answer: Its GI50 is 41.1 µM (inactive).

Question: And the GI50 [23]?
Answer: The GI50 was < 0.01 µM (active).

Question: What about the GI50 [24] of the same compound?
Answer: Its GI50 is 33.8 µM (inactive).

Question: And the GI50 [25]?
Answer: The GI50 was 34.5 µM (inactive).

Question: And the GI50 [26]?
Answer: The GI50 was 23.2 µM (inactive).

Question: What about the GI50 [27] of the same compound?
Answer: The GI50 was 31.6 µM (inactive).

Question: And the GI50 [28]?
Answer: Its GI50 is 32 µM (inactive).

Question: And the GI50 [29]?
Answer: Its GI50 is 29.9 µM (inactive).

Question: What about the GI50 [30] of the same compound?
Answer: The GI50 was 27.4 µM (inactive).

Question: What about the GI50 [31] of the same compound?
Answer: Its GI50 is 18.1 µM (inactive).

Question: What about the GI50 [32] of the same compound?
Answer: The GI50 was 28.9 µM (inactive).

Question: What about the GI50 [33] of the same compound?
Answer: The GI50 was 15.9 µM (inactive).

Question: And the GI50 [34]?
Answer: Its GI50 is 58.7 µM (inactive).

Question: What about the GI50 [35] of the same compound?
Answer: The GI50 was 40.2 µM (inactive).

Question: What about the GI50 [36] of the same compound?
Answer: Its GI50 is 39.5 µM (inactive).

Question: What about the GI50 [37] of the same compound?
Answer: The GI50 was 22.4 µM (inactive).

Question: What about the GI50 [38] of the same compound?
Answer: The GI50 was 25.6 µM (inactive).

Question: What about the GI50 [39] of the same compound?
Answer: The GI50 was 17.9 µM (inactive).

Question: What about the GI50 [40] of the same compound?
Answer: Its GI50 is 4.54 µM (inactive).

Question: What about the GI50 [41] of the same compound?
Answer: Its GI50 is 52.8 µM (inactive).

Question: What about the GI50 [42] of the same compound?
Answer: Its GI50 is 48.9 µM (inactive).

Question: And the GI50 [43]?
Answer: Its GI50 is 22.9 µM (inactive).

Question: And the GI50 [44]?
Answer: The GI50 was 19.3 µM (inactive).

Question: And the GI50 [45]?
Answer: The GI50 was 36.8 µM (inactive).

Question: And the GI50 [46]?
Answer: Its GI50 is 36.1 µM (inactive).

Question: And the GI50 [47]?
Answer: Its GI50 is 57.9 µM (inactive).

Question: What about the GI50 [48] of the same compound?
Answer: Its GI50 is 26.3 µM (inactive).

Question: What about the GI50 [49] of the same compound?
Answer: The GI50 was 36.3 µM (inactive).

Question: What about the GI50 [50] of the same compound?
Answer: The GI50 was 22.9 µM (inactive).

Question: And the GI50 [51]?
Answer: Its GI50 is 20 µM (inactive).

Question: And the GI50 [52]?
Answer: Its GI50 is 30.1 µM (inactive).

Question: And the GI50 [53]?
Answer: The GI50 was 29.2 µM (inactive).

Question: And the GI50 [54]?
Answer: Its GI50 is 28 µM (inactive).

Question: What about the GI50 [55] of the same compound?
Answer: The GI50 was 8.59 µM (inactive).

Question: What about the GI50 [56] of the same compound?
Answer: The GI50 was 43.8 µM (inactive).
